Patent US9434725B2, “5-azaindazole compounds and methods of use” (priority 2012, dated 2016)

Key:
Type in all cases: biochemical
PIM2 = PIM2 (Homo sapiens (Human), UniProt Q9P1W9); experiment: Pim kinase binding activity, Caliper LC3000 microfluidic peptide phosphorylation assay, PIM2; conditions: 10 μM ATP, 90 min, room temperature; read-out: PIM2 LC3K (KI)
Method: (§1) A fluorescent-labeled Pim-specific peptide substrate, was custom synthesized by American Peptide Company (Sunnyvale, Calif.). Reaction Buffer contained 10 mM HEPES, pH 7.2, 10 mM MgCl2, 0.01% Tween 20, 2 mM DTT. Termination Buffer contained 190 mM HEPES, pH 7.2, 0.015% Brij-35, 0.2% Coating Reagent 3 (Caliper Life Sciences, Hopkinton, Mass.), 20 mM EDTA. Separation Buffer contained 100 mM HEPES, pH 7.2, 0.015% Brij-35, 0.1% Coating Reagent 3, 1:200 Coating Reagent 8 (Caliper Life Sciences, Hopkinton, Mass.), 10 mM EDTA and 5% DMSO.
(§2) PIM reactions were carried out in a final volume of 10 μL per well in a 384-well plate. […] After 90 minutes of incubation at room temperature, the phosphorylation reaction was stopped by the addition of 10 μL Termination Buffer. The product and substrate in each independent reaction were separated on a 12-sipper microfluidic chip (Caliper Life Sciences, Hopkinton, Mass.) run on a Caliper LC3000® (Caliper Life Sciences, Hopkinton, Mass.). The separation of product and substrate was optimized by choosing voltages and pressure using Caliper's Optimizer software (Hopkinton, Mass.). […] Substrate conversion was calculated from the electropherogram using HTS Well Analyzer software (Caliper Life Sciences, Hopkinton, Mass.). Ki values for the test compound were calculated.

PIM3 = PIM3 (Homo sapiens (Human), UniProt Q86V86); experiment: Pim kinase binding activity, Caliper LC3000 microfluidic peptide phosphorylation assay, PIM3; conditions: 10 μM ATP, 90 min, room temperature; read-out: PIM3 LC3K (KI)
Method: as §1, §2

PIM1 = PIM1 (Homo sapiens (Human), UniProt P11309); experiment: biochemical; conditions: 10 μM ATP, 90 min, room temperature; read-out: PIM1 LC3K (KI)
PIM1, sequence (P11309 whole entry): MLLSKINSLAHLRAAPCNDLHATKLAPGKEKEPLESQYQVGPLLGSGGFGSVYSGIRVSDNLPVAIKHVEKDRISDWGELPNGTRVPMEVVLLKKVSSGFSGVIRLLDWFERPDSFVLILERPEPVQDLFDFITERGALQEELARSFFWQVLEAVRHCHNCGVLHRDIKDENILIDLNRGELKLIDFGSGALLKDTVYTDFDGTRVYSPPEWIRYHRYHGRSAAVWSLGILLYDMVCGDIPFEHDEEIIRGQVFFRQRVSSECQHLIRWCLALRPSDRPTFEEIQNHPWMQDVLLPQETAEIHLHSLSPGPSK
Method: as §1, §2

PIM2, sequence (Q9P1W9 whole entry): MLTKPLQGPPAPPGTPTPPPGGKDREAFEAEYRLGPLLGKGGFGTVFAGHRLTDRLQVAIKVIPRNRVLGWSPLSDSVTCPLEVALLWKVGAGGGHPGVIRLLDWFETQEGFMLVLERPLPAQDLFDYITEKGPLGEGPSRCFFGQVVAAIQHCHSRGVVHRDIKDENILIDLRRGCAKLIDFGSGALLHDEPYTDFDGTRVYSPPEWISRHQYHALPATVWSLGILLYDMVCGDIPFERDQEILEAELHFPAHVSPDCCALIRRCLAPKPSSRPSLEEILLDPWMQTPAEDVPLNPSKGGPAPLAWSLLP

Row | SMILES | Ki (PIM2) | Ki (PIM3) | Ki (PIM1)
1 | CCn1cc(-c2cc3c(cn2)cnn3-c2cccc(NC3CCCCNC3)n2)cn1 (stereo not drawn) [Compound 143, N-(6-(6-(1-ethyl-1H-pyrazol-4-yl)-1H-pyrazolo[4,3-c]pyridin-1-yl)pyridin-2-yl)azepan-3-amine] | 31.1 nM | 1.62 nM | 2.46 nM
2 | c1cc(N2CCCNCC2)nc(-n2ncc3cnc(-c4cnn(CC5COC5)c4)cc32)c1 [Compound 158, 1-(6-(1,4-Diazepan-1-yl)pyridin-2-yl)-6-(1-(oxetan-3-ylmethyl)-1H-pyrazol-4-yl)-1H-pyrazolo[4,3-c]pyridine] | 2900 nM | 284 nM | 287 nM
3 | NC(=O)Cn1cc(-c2cc3c(cn2)cnn3-c2cccc(N3CCCNCC3)n2)cn1 [Compound 159, 2-(4-(1-(6-(1,4-Diazepan-1-yl)pyridin-2-yl)-1H-pyrazolo[4,3-c]pyridin-6-yl)-1H-pyrazol-1-yl)acetamide] | 8.33 nM | 0.185 nM | 0.283 nM
4 | Cc1cncc(-c2cc3c(cn2)cnn3-c2cccc(C3=CCNCC3)n2)n1 [Compound 160, 6-(6-methylpyrazin-2-yl)-1-[6-(1 2 3 6-tetrahydropyridin-4-yl)-2-pyridyl]pyrazolo[4,3-c]pyridine] | 8.31 nM | 1.06 nM | 1.17 nM
5 | c1cc(N2CCCNCC2)nc(-n2ncc3cnc(-c4cnn(CC5CC5)c4)cc32)c1 [Compound 161, 1-(6-(1,4-Diazepan-1-yl)pyridin-2-yl)-6-(1-(cyclopropylmethyl)-1H-pyrazol-4-yl)-1H-pyrazolo[4,3-c]pyridine] | 18.8 nM | 2.19 nM | 1.86 nM
6 | CCn1cc(-c2cc3c(cn2)cnn3-c2cncc(N3CCCNCC3)n2)cn1 [Compound 163, 1-(6-(1,4-diazepan-1-yl)pyrazin-2-yl)-6-(1-ethyl-1H-pyrazol-4-yl)-1H-pyrazolo[4,3-c]pyridine] | 26.6 nM | 2.96 nM | 1.63 nM
7 | Cc1cnc(O)c(-c2cc3c(cn2)cnn3-c2cncc(N3CCCNCC3)n2)c1 [Compound 164, 3-(1-(6-(1,4-diazepan-1-yl)pyrazin-2-yl)-1H-pyrazolo[4,3-c]pyridin-6-yl)-5-methylpyridin-2-ol] | 527 nM | 14.8 nM | 50.2 nM
8 | COc1ncc(-n2ncc3cnc(-c4cncc(C)n4)cc32)nc1N1CCC[C@H](N)C1 [Compound 222, (3S)-1-[3-methoxy-6-[6-(6-methylpyrazin-2-yl)pyrazolo[4,3-c]pyridin-1-yl]pyrazin-2-yl]piperidin-3-amine] | 0.979 nM | 0.073 nM | 0.125 nM
9 | Cc1cncc(-c2cc3c(cn2)cnn3-c2cnc(O)c(N3CCC[C@H](N)C3)n2)n1 [Compound 223, 3-[(3S)-3-amino-1-piperidyl]-5-[6-(6-methylpyrazin-2-yl)pyrazolo[4 3-c]pyridin-1-yl]pyrazin-2-ol] | 7.11 nM | 1.84 nM | 2.37 nM
10 | Cc1cncc(-c2cc3c(cn2)cnn3-c2cnc(Cl)c(N3CCC[C@H](N)C3)n2)n1 [Compound 226, (3S)-1-[3-chloro-6-[6-(6-methylpyrazin-2-yl)pyrazolo[4,3-c]pyridin-1-yl]pyrazin-2-yl]piperidin-3-amine] | 10.4 nM | 0.89 nM | 1.65 nM
11 | Cn1cc(-c2cc3c(cn2)cnn3-c2cccc(C3(O)CCCNCC3)n2)cn1 (stereo not drawn) [Compound 230, 4-(6-(6-(1-Methyl-1H-pyrazol-4-yl)-1H-pyrazolo[4,3-c]pyridin-1-yl)pyridin-2-yl)azepan-4-ol] | 63.3 nM | 4.32 nM | 5.05 nM
12 | Cc1cncc(-c2cc3c(cn2)cnn3-c2cc(N3CCC[C@H](N)C3)c(=O)n(C)c2)n1 [Compound 233, (S)-3-(3-aminopiperidin-1-yl)-1-methyl-5-(6-(6-methylpyrazin-2-yl)-1H-pyrazolo[4,3-c]pyridin-1-yl)pyridin-2(1H)-one] | 2300 nM | 903 nM | 528 nM
13 | COc1ccc(-n2ncc3cnc(-c4cnn(CC(F)(F)F)c4)cc32)nc1N1CCNC[C@@H](O)C1 [Compound 234, (R)-1-(3-Methoxy-6-(6-(1-(2,2,2-trifluoroethyl)-1H-pyrazol-4-yl)-1H-pyrazolo-[4,3-c]pyridin-1-yl)pyridin-2-yl)-1,4-diazepan-6-ol] | 2.25 nM | 0.236 nM | 0.107 nM

Next, values leading:

Row | Ki (PIM2) | Ki (PIM3) | Ki (PIM1) | SMILES
14 | 4100 nM | 45.2 nM | 128 nM | Cn1ncc(-c2cc3c(cn2)cnn3-c2cccc(N3CCCNCC3)n2)cc1=O [Compound 148, 5-(1-(6-(1,4-diazepan-1-yl)pyridin-2-yl)-1H-pyrazolo[4,3-c]pyridin-6-yl)-2-methylpyridazin-3(2H)-one]
15 | 91.2 nM | 8.02 nM | 20.5 nM | CC(C)(C)c1cncc(-c2cc3c(cn2)cnn3-c2cccc(N3CCNCC3)n2)n1 [Compound 170, 6-(6-tert-butylpyrazin-2-yl)-1-(6-piperazin-1-yl-2-pyridyl)pyrazolo[4,3-c]pyridine]
16 | 9.54 nM | 1.09 nM | 1.21 nM | FC(F)n1cc(-c2cc3c(cn2)cnn3-c2cccc(N3CCCNCC3)n2)cn1 [Compound 173, 1-(6-(1,4-Diazepan-1-yl)pyridin-2-yl)-6-(1-(difluoromethyl)-1H-pyrazol-4-yl)-1H-pyrazolo[4,3-c]pyridine]
17 | 196 nM | 6.72 nM | 11.3 nM | c1cc(N2CCCNCC2)nc(-n2ncc3cnc(-c4cncnc4)cc32)c1 [Compound 175, 1-(6-(1,4-Diazepan-1-yl)pyridin-2-yl)-6-(pyrimidin-5-yl)-1H-pyrazolo[4,3-c]pyridine]
18 | 16.1 nM | 0.363 nM | 1.04 nM | N#Cc1cncc(-c2cc3c(cn2)cnn3-c2cccc(N3CCNCC3)n2)n1 [Compound 177, 6-[1-(6-piperazin-1-yl-2-pyridyl)pyrazolo[4,3-c]pyridin-6-yl]pyrazine-2-carbonitrile]
19 | 13.7 nM | 0.655 nM | 0.716 nM | Cc1cncc(-c2cc3c(cn2)cnn3-c2cccc(N3CCC4(CCNCC4)C3)n2)n1 [Compound 199, 2-[6-[6-(6-methylpyrazin-2-yl)pyrazolo[4,3-c]pyridin-1-yl]-2-pyridyl]-2 8-diazaspiro[4.5]decane]
20 | 17 nM | 0.451 nM | 1.21 nM | Cc1cncc(-c2cc3c(cn2)cnn3-c2cccc(N3CCC4(CCNC4)CC3)n2)n1 [Compound 200, 8-[6-[6-(6-methylpyrazin-2-yl)pyrazolo[4,3-c]pyridin-1-yl]-2-pyridyl]-2 8-diazaspiro[4.5]decane]
21 | 421 nM | 36.4 nM | 56.4 nM | Cc1cncc(-c2cc3c(cn2)cnn3-c2cccc(N3C[C@@H](N)CCC3=O)n2)n1 [Compound 202, (5S)-5-amino-1-[6-[6-(6-methylpyrazin-2-yl)pyrazolo[4,3-c]pyridin-1-yl]-2-pyridyl]piperidin-2-one]
22 | 40.4 nM | 2.3 nM | 3.74 nM | Cc1cncc(-c2cc3c(cn2)cnn3-c2cccc(N3CCNCCC3=O)n2)n1 [Compound 206, 4-[6-[6-(6-methylpyrazin-2-yl)pyrazolo[4,3-c]pyridin-1-yl]-2-pyridyl]-1 4-diazepan-5-one]
23 | 15.1 nM | 0.258 nM | 1.17 nM | Cc1cncc(-c2cc3c(cn2)cnn3-c2cccc(N3CC4(CCNC4)C3)n2)n1 [Compound 217, 1-[6-(2 7-diazaspiro[3.4]octan-2-yl)-2-pyridyl]-6-(6-methylpyrazin-2-yl)pyrazolo[4,3-c]pyridine]
24 | 12.5 nM | 0.265 nM | 0.433 nM | Cc1cncc(-c2cc3c(cn2)cnn3-c2ccc(C(F)(F)F)c(N3CCNCC(O)C3)n2)n1 (stereo not drawn) [Compound 219, 1-(6-(6-(6-methylpyrazin-2-yl)-1H-pyrazolo[4,3-c]pyridin-1-yl)-3-(trifluoromethyl)pyridin-2-yl)-1,4-diazepan-6-ol]
25 | 744 nM | 23.2 nM | 26.2 nM | Cc1cncc(-c2cc3c(cn2)cnn3-c2ccc(C)c(N3C[C@@H](N)CCC3=O)n2)n1 [Compound 221, (5S)-5-amino-1-[3-methyl-6-[6-(6-methylpyrazin-2-yl)pyrazolo[4,3-c]pyridin-1-yl]-2-pyridyl]piperidin-2-one]
26 | 9.39 nM | 0.131 nM | 0.316 nM | Cn1cc(-c2cc3c(cn2)cnn3-c2cccc(N3CCNC[C@@H](O)C3)n2)cn1 [Compound 229, (R)-1-(6-(6-(1-Methyl-1H-pyrazol-4-yl)-1H-pyrazolo[4,3-c]pyridin-1-yl)pyridin-2-yl)-1,4-diazepan-6-ol]
27 | 21.1 nM | 0.83 nM | 1.19 nM | Cc1cncc(-c2cc3c(cn2)cnn3-c2cccc(N3CC(O)C(O)C3)n2)n1 (stereo not drawn) [Compound 232, 1-[6-[6-(6-methylpyrazin-2-yl)pyrazolo[4,3-c]pyridin-1-yl]-2-pyridyl]pyrrolidine-3 4-diol]
